Measurements from ChEMBL document CHEMBL5375972, “Discovery of Novel 2,3-Dihydro-1H-indene-5-sulfonamide NLRP3 Inflammasome Inhibitors Targeting Colon as a Potential Therapy for Colitis” (J Med Chem, 2023).
Active and inactive are the calls of the source. No cut-off for these calls is given here.

Experiments:
Mus musculus [1] = experiment: Anti-inflammatory activity in DSS-induced ulcerative colitis C57BL/6 mouse model assessed as reduction in mucosal damage in colon at 10 mg/kg,ip administrated for 9 days by Hematoxylin-eosin staining based microscopic analysis; type: functional, organism-based; details: time 9.0 day
Mus musculus [2] = experiment: Anti-inflammatory activity in DSS-induced ulcerative colitis C57BL/6 mouse model assessed as decrease in IL-1beta expression in colon at 10 mg/kg,ip administrated for 9 days by immunohistochemistry analysis; type: functional, organism-based; details: time 9.0 day
[3] = target: NACHT, LRR and PYD domains-containing protein 3 (Homo sapiens, UniProt Q96P20); experiment: Inhibition of NLRP3 inflammasome in human U-937 cells assessed as downregulation of LPS/ATP-induced caspase-1 p20 expression at 3 to 30 uM primed with LPS for 4.5 hrs followed by compound addition for 2.5 hrs and stimulated with […] for 13 hrs by Western blotting analysis; type: cell-based; details: dose 3-30 µM, time 15.5 hrs
[4] = Subacute toxicity in C57BL/6 mouse assessed as body weight gain at 100 mg/kg,ip administrated for 14 days; type: organism-based; details: in vivo, 336 h, time 14 day
[5] = Cmax in Sprague-Dawley rat at 1 mg/kg,iv measured after 24 hrs by HPLC-MS/MS analysis; type: ADME, organism-based; set-up: dose 1 mg/kg, time 24 hrs, route iv; details: in vivo
[6] = Acute toxicity in Kunming mouse model assessed as change in body weight at 1000 mg/kg,IG administration for 7 days; type: organism-based; details: in vivo, po, 168 h, time 7 day
[7] = Stability of compound in human plasma measured for 48 hrs; type: ADME, cell-free
[8] = Drug distribution in Sprague-Dawley rat liver at 1 mg/kg,iv measured for 0.5 to 2 hrs by HPLC-MS/MS analysis; type: ADME, organism-based; details: in vivo, time 0.5-2 hrs
[9] = Acute toxicity in Kunming mouse model assessed as clonic convulsion at 2000 mg/kg,IG administration for 7 days; type: organism-based; details: in vivo, po, 168 h, time 7 day
[10] = Subacute toxicity in C57BL/6 mouse assessed as lung histological changes at 100 mg/kg,ip administrated for 14 days; type: organism-based; details: in vivo, 336 h, time 14 day
Mus musculus [11] = experiment: Anti-inflammatory activity in DSS-induced ulcerative colitis C57BL/6 mouse model assessed as reduction in disease activity index (DAI) score at 10 mg/kg,ip administrated for 9 days; type: functional, organism-based; details: time 9.0 day
[12] = Subacute toxicity in C57BL/6 mouse assessed as change in colon weight at 100 mg/kg,ip administrated for 14 days; type: organism-based; details: in vivo, 336 h, time 14 day
Mus musculus [13] = experiment: Anti-inflammatory activity in C57BL/6 mouse assessed as inhibition of LPS-induced TNFF-alpha secretion at 10 mg/kg,ip administrated for 1 hr followed by LPS stimulation for 2.5 hrs by ELISA analysis; type: functional, organism-based
[14] = Subacute toxicity in C57BL/6 mouse assessed as body weight gain at 10 mg/kg,ip administrated for 14 days; type: organism-based; details: in vivo, 336 h, time 14 day
Mus musculus [15] = experiment: Anti-inflammatory activity in DSS-induced ulcerative colitis C57BL/6 mouse model assessed as decrease in ASC expression in colon at 10 mg/kg,ip administrated for 9 days by immunohistochemistry analysis; type: functional, organism-based; details: time 9.0 day
Mus musculus [16] = experiment: Anti-inflammatory activity in DSS-induced ulcerative colitis C57BL/6 mouse model assessed as decrease in NLRP3 protein expression in colon at 10 mg/kg,ip administrated for 9 days by Western blotting analysis; type: functional, organism-based; details: time 9.0 day
[17] = Subacute toxicity in C57BL/6 mouse assessed as change in kidney weight at 10 mg/kg,ip administrated for 14 days; type: organism-based; details: in vivo, 336 h, time 14 day
[18] = Subacute toxicity in C57BL/6 mouse assessed as change in liver weight at 100 mg/kg,ip administrated for 14 days; type: organism-based; details: in vivo, 336 h, time 14 day
[19] = Acute toxicity in Kunming mouse model assessed as clonic convulsion at 1000 mg/kg,IG administration for 7 days; type: organism-based; details: in vivo, po, 168 h, time 7 day
[20] = Acute toxicity in Kunming mouse model assessed as behavioral abnormalities at 1000 mg/kg,IG administration for 7 days; type: organism-based; details: in vivo, po, 168 h, time 7 day
[21] = Drug distribution in Sprague-Dawley rat colon at 1 mg/kg,iv measured for 0.5 hrs by HPLC-MS/MS analysis; type: ADME, organism-based; details: read-out: Ct
[22] = Acute toxicity in Kunming mouse model assessed as lethargy at 1000 mg/kg,IG administration for 7 days; type: organism-based; details: in vivo, po, 168 h, time 7 day
Mus musculus [23] = experiment: Anti-inflammatory activity in DSS-induced ulcerative colitis C57BL/6 mouse model assessed as decrease in IL-18 expression in colon at 10 mg/kg,ip administrated for 9 days by immunohistochemistry analysis; type: functional, organism-based; details: time 9.0 day
Mus musculus [24] = experiment: Anti-inflammatory activity in DSS-induced ulcerative colitis C57BL/6 mouse model assessed as decrease in pro-IL-1beta protein expression in colon at 10 mg/kg,ip administrated for 9 days by Western blotting analysis; type: functional, organism-based; details: time 9.0 day
[25] = Acute toxicity in Kunming mouse model assessed as anorexia at 1000 mg/kg,IG administration for 7 days; type: organism-based; details: in vivo, po, 168 h, time 7 day
Mus musculus [26] = experiment: Anti-inflammatory activity in DSS-induced ulcerative colitis C57BL/6 mouse model assessed as decrease in caspase-1 p20 protein expression in colon at 10 mg/kg,ip administrated for 9 days by Western blotting analysis; type: functional, organism-based; details: time 9.0 day
[27] = Drug distribution in Sprague-Dawley rat lung at 1 mg/kg,iv measured for 0.5 to 2 hrs by HPLC-MS/MS analysis; type: ADME, organism-based; details: in vivo, time 0.5-2 hrs
[28] = Subacute toxicity in C57BL/6 mouse assessed as change in liver weight at 10 mg/kg,ip administrated for 14 days; type: organism-based; details: in vivo, 336 h, time 14 day
[29] = Subacute toxicity in C57BL/6 mouse assessed as spleen histological changes at 100 mg/kg,ip administrated for 14 days; type: organism-based; details: in vivo, 336 h, time 14 day
[30] = Subacute toxicity in C57BL/6 mouse assessed as heart histological changes at 100 mg/kg,ip administrated for 14 days; type: organism-based; details: in vivo, 336 h, time 14 day
J774.A1 [31] = experiment: […] of pyroptosis in mouse J774.A1 cells assessed as decrease in LDH release at 0.1 to 30 uM stimulated with LPS for 4.5 hs followed by incubation with compound for 30 mins and ATP addition for 30 mins by microplate reader assay; type: functional, cell-based; details: dose 0.1-30 µM, time 1.0 hrs
[32] = Subacute toxicity in C57BL/6 mouse assessed as spleen histological changes at 10 mg/kg,ip administrated for 14 days; type: organism-based; details: in vivo, 336 h, time 14 day
J774.A1 [33] = experiment: Inhibition of NF-kappaB pathway in mouse J774.A1 cells assessed as inhibition of LPS-induced TNF-alpha secretion at 0.1 to 30 uM pretreated for 1hr followed by LPS addition for 6 hrs by ELISA; type: cell-based; details: dose 0.1-30 µM, time 7.0 hrs
[34] = Drug distribution in Sprague-Dawley rat spleen at 1 mg/kg,iv measured for 0.5 to 2 hrs by HPLC-MS/MS analysis; type: ADME, organism-based; details: in vivo, time 0.5-2 hrs
[35] = Subacute toxicity in C57BL/6 mouse assessed as heart histological changes at 10 mg/kg,ip administrated for 14 days; type: organism-based; details: in vivo, 336 h, time 14 day
[36] = Acute toxicity in Kunming mouse model assessed as ruffled fur at 1000 mg/kg,IG administration for 7 days; type: organism-based; details: in vivo, po, 168 h, time 7 day
[37] = Stability of compound in rat plasma measured for 48 hrs; type: ADME, cell-free
[38] = Acute toxicity in Kunming mouse model assessed as behavioral abnormalities at 2000 mg/kg,IG administration for 7 days; type: organism-based; details: in vivo, po, 168 h, time 7 day
[39] = Subacute toxicity in C57BL/6 mouse assessed as change in spleen weight at 100 mg/kg,ip administrated for 14 days; type: organism-based; details: in vivo, 336 h, time 14 day

NACHT, LRR and PYD domains-containing protein 3, sequence (Q96P20 whole entry, the tested form may be a part): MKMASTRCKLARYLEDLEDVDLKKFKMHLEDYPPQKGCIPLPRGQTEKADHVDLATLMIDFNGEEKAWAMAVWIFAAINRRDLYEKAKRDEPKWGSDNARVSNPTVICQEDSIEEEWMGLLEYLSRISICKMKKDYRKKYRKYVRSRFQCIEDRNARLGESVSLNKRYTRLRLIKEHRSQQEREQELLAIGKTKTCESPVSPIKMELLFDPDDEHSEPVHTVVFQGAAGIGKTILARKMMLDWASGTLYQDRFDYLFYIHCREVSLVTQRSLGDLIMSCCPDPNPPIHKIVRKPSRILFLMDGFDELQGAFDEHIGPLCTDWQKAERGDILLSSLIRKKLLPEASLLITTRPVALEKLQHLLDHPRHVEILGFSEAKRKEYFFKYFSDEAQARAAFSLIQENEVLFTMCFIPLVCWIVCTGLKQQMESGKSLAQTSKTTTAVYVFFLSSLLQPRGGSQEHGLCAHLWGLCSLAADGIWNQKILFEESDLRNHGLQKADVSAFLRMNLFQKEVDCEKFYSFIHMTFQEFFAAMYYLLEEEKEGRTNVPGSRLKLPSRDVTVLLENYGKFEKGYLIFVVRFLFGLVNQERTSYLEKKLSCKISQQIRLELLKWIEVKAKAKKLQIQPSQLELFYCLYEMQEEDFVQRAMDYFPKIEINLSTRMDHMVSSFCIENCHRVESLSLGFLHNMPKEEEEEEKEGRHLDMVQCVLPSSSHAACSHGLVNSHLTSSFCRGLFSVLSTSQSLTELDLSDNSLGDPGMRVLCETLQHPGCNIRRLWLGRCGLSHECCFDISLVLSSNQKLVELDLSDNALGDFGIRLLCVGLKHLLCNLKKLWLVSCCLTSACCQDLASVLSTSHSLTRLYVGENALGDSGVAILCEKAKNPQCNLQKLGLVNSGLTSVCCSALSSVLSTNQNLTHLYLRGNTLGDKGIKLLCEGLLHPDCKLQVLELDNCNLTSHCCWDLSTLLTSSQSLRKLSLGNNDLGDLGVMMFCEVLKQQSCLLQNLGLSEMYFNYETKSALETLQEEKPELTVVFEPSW

CCCNS(=O)(=O)c1ccc2c(c1)CC(N(Cc1cc(Cl)ccc1OCCOC)C(=O)c1cc3ccccc3o1)C2 (racemic)
Activity (Mus musculus [1]): Active | Activity (Mus musculus [2]): Active | inhibition [3]: Active | Activity [4]: Toxic | Cmax [5]: 219 ng/mL | Activity [6]: Non-Toxic | Stability [7]: Stable | Drug uptake [8]: Active | Activity [9]: Non-Toxic | Activity [10]: Non-Toxic | Activity (Mus musculus [11]): Active | Activity [12]: Non-Toxic | Activity (Mus musculus [13]): Active | Activity [14]: Toxic | Activity (Mus musculus [15]): Active | Activity (Mus musculus [16]): Active | Activity [17]: Non-Toxic | Activity [18]: Non-Toxic | Activity [19]: Non-Toxic | Activity [20]: Non-Toxic | concentration at 0.5 h [21]: 35300 ng/g | Activity [22]: Non-Toxic | Activity (Mus musculus [23]): Active | Activity (Mus musculus [24]): Active | Activity [25]: Non-Toxic | Activity (Mus musculus [26]): Active | Drug uptake [27]: Active | Activity [28]: Non-Toxic | Activity [29]: Non-Toxic | Activity [30]: Non-Toxic | Activity (J774.A1 [31]): Active | Activity [32]: Non-Toxic | inhibition (J774.A1 [33]): inactive | Drug uptake [34]: Active | Activity [35]: Non-Toxic | Activity [36]: Non-Toxic | Stability [37]: Stable | Activity [38]: Non-Toxic | Activity [39]: Non-Toxic
